Data taken from patent US20100004248A1, “Use of a Nitric Oxide Synthase Modulator for the Treatment of Cardiac Indications” (priority 2005, published 2010).

Test system: C57/BL6 WT mice subjected to TAC pressure overload
Assay: In vivo hemodynamics, PV loop analysis, in TAC mice
Design: species or system mouse
Conditions: TAC 3 weeks
Excerpt: Male NOS3 null mice (NOS3^−/−) and C57/BL6 WT controls (8-11 weeks, Jackson Labs, Bar Harbor, Me., USA) were used. Pressure overload was produced by transverse aorta constriction (TAC). Briefly, The aortic arch was isolated by entering the extrapleural space between the second and third rib, and afterwards the transverse aorta was isolated between the right and left carotid arteries. A 7-0 prolene suture ligature was tied around the transverse aorta against a 27-gauge needle to produce a 65-70% constriction after the removal of the needle. After closing the chest, animals were extubated, and a subcutaneous injection of morphine sulphate 0.2 mg, was administered before they returned to their cages. Animal's ventilatory and circulatory status was checked every 30 minutes during the first 2 hours. Sham-operated mice underwent the same operation except for aortic constriction. […] Animals were randomized to receive placebo or BH4 (120 mg/kg/d) for the next 5 weeks. At the end of the study, i.e. at 9 weeks, animal were sacrificed to receive tissue or underwent in vivo PV-loop analysis. […] Control mice were subject to sham operations, and animals were studied 3-9 weeks following surgery. An additional group of wild-type animals were subjected to TAC for 3 weeks while co-treated with oral tetrahydrobiopterin (BH4) (Sigma-Aldrich) (1 mg/g food) mixed in their rodent chow, providing 5 mg/day based on 4-6 g daily diet^8.
Two different BH4 treatment protocols are used. For experiments related to FIGS. 1-7, where prevention of cardiac indications is described BH4 is provided orally as a treatment starting 2 days after TAC surgery (once mice are again eating oral diet). For those figures related to treatment of established cardiac indications, FIGS. 8-23, BH4 is provided orally but this is delayed for 4 weeks to establish substantial cardiac hypertrophy, remodeling, and NOS-uncoupling. Then the treatment is provided for the remaining 5 week period.
In vivo left ventricular (LV) function was assessed by pressure-volume catheter^12,13. Mice were anesthetized with 1-2% isoflurane, urethane ([…], i.p.), etomidate (5-10 mg/kg, i.p.), and morphine (1-2 mg/kg, i.p.), underwent tracheostomy, and were ventilated with 6-7 μL/g tidal volume and 130 breaths/min. Volume expansion (12.5% human albumin, 50-100 μL over 5 min) was provided through a 30 G cannula via the right external jugular vein. The left ventricular apex was exposed through an incision between the 7-8th rib, and a catheter, specifically a 1.4 Fr PV catheter (SPR 839, Millar Instruments, Inc.), was advanced through the apex to lie along the longitudinal axis. Absolute volume was calibrated, and pressure-volume data was measured at steady state and during transient reduction of venous return as reported^13

[1] = oral co-treatment 1 mg/g food, mean ± sem

Nc1nc2c(c(=O)[nH]1)NC(C(O)C(O)CO)CN2 (stereo not drawn) [H4N, tetrahydroneopterin]
functional or remodeling response to TAC (oral co-treatment): no effect | Arterial Elastance [1]: 11.4 ± 0.7 mmHg/μL | Ejection Fraction [1]: 43.4 ± 9.8% | End-diastolic Volume [1]: 38.8 ± 8.0 µL | End-systolic Elastance [1]: 41.0 ± 9.3 mmHg/μL · g | End-systolic Volume [1]: 24.0 ± 7.6 µL | Heart RateR [1]: 501.2 ± 28.5 min⁻¹ | LV Systolic Pressure [1]: 177.8 ± 4.6 mmHg | Peak Power Index [1]: 31.8 ± 5.8 mmHg/s | Tau [1]: 5.5 ± 0.36 ms | dPdtmn [1]: −10725 ± 971.0 mmHg/s | dPdtmx [1]: 11154 ± 520 mmHg/s
